Test results: patent US20240158370A1, “CK1 alpha AND DUAL CK1 alpha / GSPT1 DEGRADING COMPOUNDS” (Innovo Therapeutics, Inc., priority 2022, published 2024)

Experiments:
[1] = target: T1, CK1α (Homo sapiens, UniProt P48729+Q96SW2); test: HiBiT degradation assay, CK1α, Procedure A; type: cell-based
T1 construct: CSNK1A1-HiBit KI HEK293(LgBit) Cells; host or cells: HEK293(LgBit) knock-in cells
How it was run: (§1)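 Six-hour treatment at 37° C, ten doses between 10 μM and 0.005 μM, then HiBiT lytic luminescence. Fitted DC50 and Ymin.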

[2] = target: GSPT1 (Homo sapiens, UniProt P15170+Q96SW2); test: HiBiT degradation assay, GSPT1, Procedure A; type: cell-based; set-up: HiBit-GSPT1 KI HEK293(LgBit) Cells; host or cells: HEK293(LgBit) knock-in cells
How it was run: as §1

Sequence of GSPT1 (P15170 whole entry): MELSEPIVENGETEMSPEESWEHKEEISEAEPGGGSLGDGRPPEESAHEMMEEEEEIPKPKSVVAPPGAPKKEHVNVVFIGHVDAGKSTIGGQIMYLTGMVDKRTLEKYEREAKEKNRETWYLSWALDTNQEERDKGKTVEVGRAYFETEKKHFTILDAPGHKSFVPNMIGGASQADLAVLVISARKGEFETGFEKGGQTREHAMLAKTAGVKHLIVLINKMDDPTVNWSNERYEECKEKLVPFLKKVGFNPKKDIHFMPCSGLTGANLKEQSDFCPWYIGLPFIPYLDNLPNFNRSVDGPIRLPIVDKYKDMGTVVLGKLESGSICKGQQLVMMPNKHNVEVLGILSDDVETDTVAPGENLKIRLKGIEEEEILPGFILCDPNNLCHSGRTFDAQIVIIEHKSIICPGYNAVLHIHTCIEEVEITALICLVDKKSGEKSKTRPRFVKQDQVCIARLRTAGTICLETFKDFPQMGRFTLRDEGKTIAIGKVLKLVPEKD
Sequence of GSPT1 (Q96SW2 whole entry): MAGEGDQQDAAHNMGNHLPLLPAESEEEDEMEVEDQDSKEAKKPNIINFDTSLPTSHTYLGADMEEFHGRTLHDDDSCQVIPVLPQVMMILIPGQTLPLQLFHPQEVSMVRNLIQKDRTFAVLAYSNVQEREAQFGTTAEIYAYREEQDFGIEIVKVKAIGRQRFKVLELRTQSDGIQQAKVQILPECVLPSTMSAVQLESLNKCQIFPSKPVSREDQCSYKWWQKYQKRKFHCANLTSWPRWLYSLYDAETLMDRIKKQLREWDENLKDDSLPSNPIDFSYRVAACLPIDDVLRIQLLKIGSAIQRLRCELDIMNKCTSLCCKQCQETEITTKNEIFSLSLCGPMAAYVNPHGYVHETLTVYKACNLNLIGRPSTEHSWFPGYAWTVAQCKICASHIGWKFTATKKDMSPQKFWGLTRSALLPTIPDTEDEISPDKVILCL
Sequence of GSPT1 (Q16531 whole entry partner): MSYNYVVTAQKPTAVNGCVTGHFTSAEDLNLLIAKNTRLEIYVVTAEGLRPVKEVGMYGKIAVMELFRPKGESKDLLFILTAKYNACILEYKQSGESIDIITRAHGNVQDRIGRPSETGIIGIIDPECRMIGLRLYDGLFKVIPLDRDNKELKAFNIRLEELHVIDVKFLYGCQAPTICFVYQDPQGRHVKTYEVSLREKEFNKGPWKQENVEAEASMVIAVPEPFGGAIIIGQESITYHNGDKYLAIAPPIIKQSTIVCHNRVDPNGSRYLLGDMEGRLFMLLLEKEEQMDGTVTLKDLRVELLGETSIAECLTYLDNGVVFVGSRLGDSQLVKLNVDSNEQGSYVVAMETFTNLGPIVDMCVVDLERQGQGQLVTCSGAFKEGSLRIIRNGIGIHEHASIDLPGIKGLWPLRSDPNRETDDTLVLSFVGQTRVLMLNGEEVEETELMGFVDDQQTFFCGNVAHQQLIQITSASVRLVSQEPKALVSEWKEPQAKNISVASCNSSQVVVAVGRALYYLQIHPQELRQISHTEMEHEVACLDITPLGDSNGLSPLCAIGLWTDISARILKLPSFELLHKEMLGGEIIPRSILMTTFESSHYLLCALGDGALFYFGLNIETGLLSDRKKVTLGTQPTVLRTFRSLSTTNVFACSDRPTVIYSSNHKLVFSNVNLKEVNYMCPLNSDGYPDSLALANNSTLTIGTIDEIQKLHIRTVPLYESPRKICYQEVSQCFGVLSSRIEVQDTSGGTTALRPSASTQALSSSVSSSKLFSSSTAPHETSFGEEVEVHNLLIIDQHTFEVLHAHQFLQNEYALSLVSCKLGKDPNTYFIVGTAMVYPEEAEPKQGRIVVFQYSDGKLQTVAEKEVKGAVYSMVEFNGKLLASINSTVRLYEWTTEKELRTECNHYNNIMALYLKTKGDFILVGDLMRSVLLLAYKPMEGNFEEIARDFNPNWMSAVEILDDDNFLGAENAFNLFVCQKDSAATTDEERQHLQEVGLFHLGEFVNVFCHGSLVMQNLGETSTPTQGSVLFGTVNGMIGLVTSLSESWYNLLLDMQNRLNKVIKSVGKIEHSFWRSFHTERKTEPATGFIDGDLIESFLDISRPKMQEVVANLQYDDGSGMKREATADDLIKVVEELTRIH
T1 sequence (P48729 whole entry): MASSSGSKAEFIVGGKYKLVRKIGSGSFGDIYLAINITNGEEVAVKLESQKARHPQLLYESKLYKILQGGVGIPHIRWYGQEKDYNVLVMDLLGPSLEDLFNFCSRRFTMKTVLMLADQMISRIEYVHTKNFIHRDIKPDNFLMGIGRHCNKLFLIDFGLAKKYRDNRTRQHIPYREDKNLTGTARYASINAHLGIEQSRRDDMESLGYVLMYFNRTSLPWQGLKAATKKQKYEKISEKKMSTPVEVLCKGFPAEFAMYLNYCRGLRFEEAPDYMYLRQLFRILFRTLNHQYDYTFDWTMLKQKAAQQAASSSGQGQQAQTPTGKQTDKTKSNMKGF
T1 sequence (Q96SW2 whole entry): as the sequence (Q96SW2 whole entry) above
T1 sequence (Q16531 whole entry partner): as the sequence (Q16531 whole entry partner) above

| SMILES | CK1α Ymin ([1]; six hours incubation) | DC50 ([1]; six hours incubation) [nM] | DC50 ([2]; six hours incubation) [nM] | GSPT1 Ymin ([2]; six hours incubation) | CK1α Ymin ([1]; six hours) | DC50 ([1]; six hours) [nM] | DC50 ([2]; six hours) [nM] | GSPT1 Ymin ([2]; six hours) |
| --- | --- | --- | --- | --- | --- | --- | --- | --- |
| Cn1ncc(-c2ccc3c(c2)CN(C2CCC(=O)NC2=O)C3=O)c1-c1ccc(C(=O)NCc2ccccc2)c(Cl)c1 (stereo not drawn) [Example 102] | E (E = >25-75% remaining) | ≥ 25 | ≥ 25 | F (F = >75-100% remaining) |  |  |  |  |
| Cc1ccc(-c2nc(-c3ccc4c(c3)CN(C3CCC(=O)NC3=O)C4=O)cn2C)cc1 (stereo not drawn) [Example 568] |  |  |  |  | C (C = 0-10% remaining) | < 25 | < 25 | F (F = >75-100% remaining) |
| Cn1c(C2CCOCC2)nc(-c2ccc3c(c2)CN(C2CCC(=O)NC2=O)C3=O)c1-c1cccnc1 (stereo not drawn) [Example 420, 3-(5-(1-methyl-5-(pyridin-3-yl)-2-(tetrahydro-2H-pyran-4-yl)-1H-imidazol-4-yl)-1-oxoisoindolin-2-yl)piperidine-2,6-dione] |  |  |  |  | C (C = 0-10% remaining) | < 25 | ≥ 25 | F (F = >75-100% remaining) |
| O=C1CCC(N2Cc3cc(-c4conc4-c4ccccc4)ccc3C2=O)C(=O)N1 (stereo not drawn) [Example 206, 3-(1-Oxo-5-(3-phenylisoxazol-4-yl)isoindolin-2-yl)piperidine-2,6-dione] | E (E = >25-75% remaining) | ≥ 25 | ≥ 25 | F (F = >75-100% remaining) |  |  |  |  |
| CN1CCN(Cc2cccc(-c3c(-c4ccc5c(c4)CN(C4CCC(=O)NC4=O)C5=O)ncn3C)c2)CC1 (stereo not drawn) [Example 312] | D (D = >10- 25% remaining) | ≥ 25 | ≥ 25 | F (F = >75-100% remaining) |  |  |  |  |
| Cc1cc(-c2c(-c3ccc4c(c3)CN(C3CCC(=O)NC3=O)C4=O)ncn2C)c(C)s1 (stereo not drawn) [Example 241] | D (D = >10- 25% remaining) | < 25 | ≥ 25 | F (F = >75-100% remaining) |  |  |  |  |
| Cn1cc(-c2ccc3c(c2)CN(C2CCC(=O)NC2=O)C3=O)nc1-c1cc(F)cc(F)c1 (stereo not drawn) [Example 555] |  |  |  |  | C (C = 0-10% remaining) | < 25 | ≥ 25 | F (F = >75-100% remaining) |
| O=C1CCC(N2Cc3cc(-c4cscc4-c4ccccc4)ccc3C2=O)C(=O)N1 (stereo not drawn) [Example 4, 3-(1-Oxo-5-(4-phenylthiophen-3-yl)isoindolin-2-yl)piperidine-2,6-dione] | E (E = >25-75% remaining) | ≥ 25 | ≥ 25 | F (F = >75-100% remaining) |  |  |  |  |
| Cc1nocc1-c1c(-c2ccc3c(c2)CN(C2CCC(=O)NC2=O)C3=O)ncn1C (stereo not drawn) [Example 320] | D (D = >10- 25% remaining) | < 25 | ≥ 25 | F (F = >75-100% remaining) |  |  |  |  |
| Cn1cnc(-c2ccc3c(c2)CN(C2CCC(=O)NC2=O)C3=O)c1-c1ccc(OCCCN2CCOCC2)cc1 (stereo not drawn) [Example 359] | E (E = >25-75% remaining) | < 25 | ≥ 25 | F (F = >75-100% remaining) |  |  |  |  |
| Cc1c[nH]c2cc(-c3c(-c4ccc5c(c4)CN(C4CCC(=O)NC4=O)C5=O)ncn3C)ccc12 (stereo not drawn) [Example 512] |  |  |  |  | C (C = 0-10% remaining) | < 25 | < 25 | F (F = >75-100% remaining) |
| Cc1cc(-c2nc(-c3ccc4c(c3)CN(C3CCC(=O)NC3=O)C4=O)cn2C)ccc1Cl (stereo not drawn) [Example 574] |  |  |  |  | C (C = 0-10% remaining) | < 25 | ≥ 25 | E (E = >25-75% remaining) |
| CN1CCN(c2ccc(-c3c(-c4ccc5c(c4)CN(C4CCC(=O)NC4=O)C5=O)cnn3C)cc2)CC1 (stereo not drawn) [Example 217] | D (D = >10- 25% remaining) | < 25 | ≥ 25 | F (F = >75-100% remaining) |  |  |  |  |
| O=C1CCC(N2Cc3cc(-c4cn(C(F)F)nc4-c4cncnc4)ccc3C2=O)C(=O)N1 (stereo not drawn) [Example 536, 3-(5-(1-(difluoromethyl)-3-(pyrimidin-5-yl)-1H-pyrazol-4-yl)-1-oxoisoindolin-2-yl)piperidine-2,6-dione] |  |  |  |  | F (F = >75-100% remaining) | ≥ 25 | ≥ 25 | F (F = >75-100% remaining) |
| Cc1cc(Cl)cc(-c2c(-c3ccc4c(c3)CN(C3CCC(=O)NC3=O)C4=O)ncn2C)c1 (stereo not drawn) [Example 201] | E (E = >25-75% remaining) | < 25 | ≥ 25 | F (F = >75-100% remaining) |  |  |  |  |
| Cn1cnc(-c2ccc3c(c2)CN(C2CCC(=O)NC2=O)C3=O)c1-c1cccc(C#N)c1 (stereo not drawn) [Example 232] | D (D = >10- 25% remaining) | < 25 | ≥ 25 | F (F = >75-100% remaining) |  |  |  |  |
| O=C1CCC(N2Cc3cc(-n4cncc4-c4ccccc4)ccc3C2=O)C(=O)N1 (stereo not drawn) [Example 607, 3-(1-oxo-5-(5-phenyl-1H-imidazol-1-yl)isoindolin-2-yl)piperidine-2,6-dione] |  |  |  |  | E (E = >25-75% remaining) | ≥ 25 | ≥ 25 | F (F = >75-100% remaining) |
| Cn1c(C2CC2)nc(-c2ccc3c(c2)CN(C2CCC(=O)NC2=O)C3=O)c1-c1cnc(C2CC2)nc1 (stereo not drawn) [Example 548, 3-(5-(2-cyclopropyl-5-(2-cyclopropylpyrimidin-5-yl)-1-methyl-1H-imidazol-4-yl)-1-oxoisoindolin-2-yl)piperidine-2,6-dione] |  |  |  |  | D (D = >10- 25% remaining) | < 25 | ≥ 25 | F (F = >75-100% remaining) |
| Cn1ncc(-c2ccc3c(c2)CN(C2CCC(=O)NC2=O)C3=O)c1-c1ccc(N2CCOCC2)nc1 (stereo not drawn) [Example 466] |  |  |  |  | F (F = >75-100% remaining) | < 25 | ≥ 25 | F (F = >75-100% remaining) |
| [2H]C([2H])([2H])n1cc(-c2ccc3c(c2)CN(C2CCC(=O)NC2=O)C3=O)nc1-c1ccccc1 (stereo not drawn) [Example 437, 3-(5-(1-(methyl-d3)-2-phenyl-1H-imidazol-4-yl)-1-oxoisoindolin-2-yl)piperidine-2,6-dione] |  |  |  |  | C (C = 0-10% remaining) | < 25 | < 25 | F (F = >75-100% remaining) |
| Cc1cc(-c2nc(-c3ccc4c(c3)CN(C3CCC(=O)NC3=O)C4=O)cn2C)ccc1F (stereo not drawn) [Example 563] |  |  |  |  | C (C = 0-10% remaining) | < 25 | ≥ 25 | F (F = >75-100% remaining) |
| Cc1c(-c2c(-c3ccc4c(c3)CN(C3CCC(=O)NC3=O)C4=O)ncn2C)cnn1-c1ccccc1 (stereo not drawn) [Example 407] |  |  |  |  | C (C = 0-10% remaining) | < 25 | ≥ 25 | E (E = >25-75% remaining) |

Further lines, results first:

| CK1α Ymin ([1]; six hours incubation) | DC50 ([1]; six hours incubation) [nM] | DC50 ([2]; six hours incubation) [nM] | GSPT1 Ymin ([2]; six hours incubation) | CK1α Ymin ([1]; six hours) | DC50 ([1]; six hours) [nM] | DC50 ([2]; six hours) [nM] | GSPT1 Ymin ([2]; six hours) | SMILES |
| --- | --- | --- | --- | --- | --- | --- | --- | --- |
| D (D = >10- 25% remaining) | < 25 | ≥ 25 | F (F = >75-100% remaining) |  |  |  |  | [2H]C([2H])([2H])n1ncc(-c2ccc3c(c2)CN(C2CCC(=O)NC2=O)C3=O)c1-c1ccccc1 (stereo not drawn) [Example 207, 3-(5-(1-(Methyl-d3)-5-phenyl-1H-pyrazol-4-yl)-1-oxoisoindolin-2-yl)piperidine-2,6-dione] |
|  |  |  |  | D (D = >10- 25% remaining) | ≥ 25 | ≥ 25 | F (F = >75-100% remaining) | Cn1ncc(-c2ccc3c(c2)CN(C2CCC(=O)NC2=O)C3=O)c1-c1ccc2c(c1)ncn2C (stereo not drawn) [Example 476] |
| E (E = >25-75% remaining) | ≥ 25 | < 25 | F (F = >75-100% remaining) |  |  |  |  | Cn1ncc(-c2ccc3c(c2)CN(C2CCC(=O)NC2=O)C3=O)c1-c1cc(F)cc(F)c1 (stereo not drawn) [Example 139] |
|  |  |  |  | E (E = >25-75% remaining) | ≥ 25 | ≥ 25 | F (F = >75-100% remaining) | Cn1ncc(-c2ccc3c(c2)CN(C2CCC(=O)NC2=O)C3=O)c1-c1cnn(CC(F)F)c1 (stereo not drawn) [Example 388] |
| F (F = >75-100% remaining) | ≥ 25 | ≥ 25 | F (F = >75-100% remaining) |  |  |  |  | Cc1cncc(-c2c(-c3ccc4c(c3)CN(C3CCC(=O)NC3=O)C4=O)cnn2C)c1 (stereo not drawn) [Example 369] |
| C (C = 0-10% remaining) | < 25 | < 25 | F (F = >75-100% remaining) |  |  |  |  | Cn1ccc(-c2c(-c3ccc4c(c3)CN(C3CCC(=O)NC3=O)C4=O)cnn2C)c1 (stereo not drawn) [Example 363] |
| E (E = >25-75% remaining) | ≥ 25 | ≥ 25 | F (F = >75-100% remaining) |  |  |  |  | CC(C)Cc1ccc(-c2c(-c3ccc4c(c3)CN(C3CCC(=O)NC3=O)C4=O)cnn2C)cc1 (stereo not drawn) [Example 92] |
|  |  |  |  | D (D = >10- 25% remaining) | < 25 | ≥ 25 | F (F = >75-100% remaining) | Cn1ncc(-c2ccc3c(c2)CN(C2CCC(=O)NC2=O)C3=O)c1-c1ccc2ncsc2c1 (stereo not drawn) [Example 393] |
| D (D = >10- 25% remaining) | < 25 | ≥ 25 | F (F = >75-100% remaining) |  |  |  |  | Cn1ncc(-c2ccc3c(c2)CN(C2CCC(=O)NC2=O)C3=O)c1-c1ccsc1 (stereo not drawn) [Example 95] |
| E (E = >25-75% remaining) | ≥ 25 | ≥ 25 | F (F = >75-100% remaining) |  |  |  |  | Cn1ncc(-c2ccc3c(c2)CN(C2CCC(=O)NC2=O)C3=O)c1-c1ccc(Cl)c(Cl)c1 (stereo not drawn) [Example 75] |
| E (E = >25-75% remaining) | < 25 | ≥ 25 | F (F = >75-100% remaining) |  |  |  |  | Cn1ncc(-c2ccc3c(c2)CN(C2CCC(=O)NC2=O)C3=O)c1-c1cccc(F)c1F (stereo not drawn) [Example 73] |
